Data reported in US5734014A, “Elafin derivative” (Tsumura & Co., priority 1992, dated 1998).

Tests used:
[1] = test system: endotoxin-treated mice; test: Test 3: survival rate in mouse endotoxin shock model; assay type: in vivo, ICR male mice; conditions: test substance i.v. four times, survivors/10 mice
Experimental: Using a mouse endotoxin shock model, effects of the elafin derivative according to this invention on the survival rate were investigated while using natural elafin and urinastatin, which is a urinary trypsin inhibitor having anti-elastase action, as comparative substances. After endotoxin was administered at 6 mg/Kg to the caudal veins of ten 7 weeks-old ICR male mice (CHARLES RIVER JAPAN, INC.) in each group, the mice were administered with one of the test substance. Their survival rate was observed along the passage of time. The test substance was administered to the caudal veins of the mice four times in total, that is, 10 minutes before the administration of endotoxin and 3 hours, 6 hours and 12 hours after its administration.
Employed as the test substances were natural elafin, the elafin derivative according to the present invention in which the methionine at the 25th had been modified to leucine (hereinafter called "L-elafin") and urinastatin ("MIRACLID"™;product of MOCHIDA PHARMACEUTICAL CO., LTD.; hereinafter called "UTI").
Natural elafin and L-elafin were each dissolved in a buffer of 20 mM sodium acetate physiological saline, in which 1% bovine serum albumin had been added, whereas UTI was dissolved in the physiological saline.
As a control, a buffer of 20 mM sodium acetate physiological saline, in which 1% bovine serum albumin had been added, was used.

[2] = molecular target: T1, neutrophilic elastase (Homo sapiens, UniProt P08246); test: Test 1: neutrophilic elastase inhibiting activity of non-oxidized and oxidized elafins (AAPV-pNA substrate); assay type: biochemical
T1 construct: purchased Elastin Products Co., Inc
T1 sequence (P08246 30-267): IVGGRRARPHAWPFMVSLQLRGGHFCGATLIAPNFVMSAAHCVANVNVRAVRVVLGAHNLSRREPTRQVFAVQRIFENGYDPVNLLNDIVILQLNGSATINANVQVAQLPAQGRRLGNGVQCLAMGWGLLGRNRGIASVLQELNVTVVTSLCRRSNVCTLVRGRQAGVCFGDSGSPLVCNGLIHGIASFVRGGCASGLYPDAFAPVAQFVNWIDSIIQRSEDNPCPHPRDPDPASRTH
Experimental: Natural elafin and the elafin derivatives were oxidized, and variations in their inhibiting activity against neutrophilic elastase were investigated. Oxidative reaction solutions of natural elafin and the elafin derivatives as elastase inhibitors were each prepared by adding 220 μM of H2 O2 and 6 nM of myeloperoxidase (product of Elastin Products Co., Ltd.) to 250 μl of a phosphate buffer (product of TAKARA SHUZO CO., LTD.) which contained 5 μg of the corresponding elafin or elafin derivative, incubating the resulting mixture at 37° C. for 20 minutes and then adding the same volume of a reaction terminating solution (catalase 0.2 mg/ml, 5 mM methionine).
Further, the measurement of elastase activity was conducted as will be described below by using 5-100 μl of the oxidative reaction solution (inhibitor concentration: 10 μg/ml) of natural elafin and the elafin derivatives prepared as described above.

[3] = test system: elastase; test: Elastase inhibiting activity of purified recombinant elafin (Referential Examples 1 and 2); assay type: biochemical; conditions: elafin produced by Escherichia coli, purified by reverse phase HPLC
[4] = 12 hrs after administration of endotoxin (6 mg/Kg, caudal vein)
[5] = 14 hrs after administration of endotoxin (6 mg/Kg, caudal vein)
[6] = 16 hrs after administration of endotoxin (6 mg/Kg, caudal vein)
[7] = 18 hrs after administration of endotoxin (6 mg/Kg, caudal vein)
[8] = 20 hrs after administration of endotoxin (6 mg/Kg, caudal vein)
[9] = 22 hrs after administration of endotoxin (6 mg/Kg, caudal vein)
[10] = 24 hrs after administration of endotoxin (6 mg/Kg, caudal vein)
[11] = 26 hrs after administration of endotoxin (6 mg/Kg, caudal vein)
[12] = 28 hrs after administration of endotoxin (6 mg/Kg, caudal vein)
[13] = 30 hrs after administration of endotoxin (6 mg/Kg, caudal vein)
[14] = 36 hrs after administration of endotoxin (6 mg/Kg, caudal vein)
[15] = 48 hrs after administration of endotoxin (6 mg/Kg, caudal vein)

Row | Substance | Survival rate [1, 4] | Survival rate [1, 5] | Survival rate [1, 6] | Survival rate [1, 7] | Survival rate [1, 8] | Survival rate [1, 9] | Survival rate [1, 10] | Survival rate [1, 11] | Survival rate [1, 12] | Survival rate [1, 13] | Survival rate [1, 14] | Survival rate [1, 15] | stability to oxidation ([2]; general statement of the inventors' findings) | variation in inhibiting activity against neutrophilic elastase by oxidation ([2]; oxidized with 220 μM H2O2 and 6 nM myeloperoxidase, 37° C., 20 minutes, FIG. 3) | elastase inhibiting activity [3]
1 | Natural elafin: 57-residue elastase inhibitor isolated from psoriatics (SEQ ID NO:2); produced recombinantly in Escherichia coli or yeast (AQEPVKGPVSTKPGSCPIILIRCAMLNPPNRCLKDTDCPGIKKCCEGSCGMACFVPQ) | 10/10 | 10/10 | 9/10 | 8/10 | 5/10 | 5/10 | 3/10 | 2/10 | 1/10 | 0/10 | 0/10 | 0/10 | unstable to oxidation | significantly decrease | strong inhibiting activity
2 | urinastatin (MIRACLID) [UTI, product of MOCHIDA PHARMACEUTICAL CO., LTD] | 10/10 | 10/10 | 8/10 | 8/10 | 4/10 | 4/10 | 2/10 | 1/10 | 0/10 | 0/10 | 0/10 | 0/10 | – | – | –
3 | Reduced elafin: elafin in the completely reduced form, before formation of S--S bonds (AQEPVKGPVSTKPGSCPIILIRCAMLNPPNRCLKDTDCPGIKKCCEGSCGMACFVPQ) | – | – | – | – | – | – | – | – | – | – | – | – | – | – | did not show any inhibiting activity
